Measured values as given in patent US6780871B2, “Methods and compositions for treating addiction disorders” (Albany Medical College, priority 2001, dated 2004).

How the values were obtained:
Format in all cases: in vivo, rat
[1] = system: methamphetamine self-administration; experiment: intravenous methamphetamine self-administration
[2] = system: morphine self-administration; experiment: intravenous morphine self-administration; details: 18-methoxycoronaridine 1 mg/kg i.p., dextromethorphan 5 mg/kg s.c.
Procedure: Dextromethorphan hydrobromide (5 mg/kg; Sigma/RBI, St. Louis, Mo.) was dissolved in saline and injected subcutaneously 20 minutes before testing. Mecamylamine hydrochloride (1 mg/kg; Sigma/RBI, St. Louis, Mo.) was dissolved in physiological saline and injected intraperitoneally 30 minutes before testing. All rats received two injections. For rats that received a single drug, half of them also received the appropriate saline/vehicle injection corresponding to each of the other two drugs.
Naive female Long-Evans derived rats (250 g; Charles River, N.Y.) were maintained on a normal 12 h light cycle (lights on at 7:00 a.m., lights off at 7:00 p.m.). For all experiments the “Principles of Laboratory Animal Care” (NIH publication No. 85-23, revised 1985, which is hereby incorporated by reference) were followed.
The intravenous self-administration procedure described in Glick et al., “18-MC Reduces Methamphetamine and Nicotine Self-administration in Rats,” NeuroReport 11:2013-2015 (2000) (“Glick I”), which is hereby incorporated by reference, was employed. Briefly, responses on either of two levers (mounted 15 cm apart on the front wall of each operant test cage) were recorded on an IBM compatible computer with a Med Associates, Inc. interface. The intravenous self-administration system consisted of polyethylene-silicone cannulas constructed according to the design of Weeks, “Long-term Intravenous Infusion,” pp. 155-168 in Myers (ed.), Methods in Psychobiology, Vol. 2, New York: Academic Press (1972) (“Weeks”), which is hereby incorporated by reference; Instech harnesses and swivels; and Harvard Apparatus infusion pumps (#55-2222). Shaping of the bar-press response was initially accomplished by training rats to bar-press for water. Cannulas were then implanted in the external jugular vein according to procedures described in Weeks, which is hereby incorporated by reference. Self-administration testing began with a 16-h nocturnal session followed by daily 1-h sessions, 5 days (Monday-Friday) a week. A lever-press response produced a 10 μl infusion of drug solution (0.01 mg of morphine sulfate) in about 0.2 s or a 50 μl infusion of drug solution (0.025 mg of methamphetamine sulfate) in about 1 s. Since all rats generally weighed 250±20 g, each response delivered approximately 0.04 mg/kg of morphine or 0.1 mg/kg of methamphetamine. Experiments to assess the effects of experimental treatments were begun when baseline self-administration rates stabilized (≦10% variation from one day to the next across 5 days), usually after 2 weeks of testing.
Each data point represents the mean (±S.E.M.) percent of baseline of 6-8 rats. Significant differences between baseline and treatment are indicated by an asterisk (paired t-test, P<0.01-0.001).
Each data point represents the mean (±S.E.M.) percent of baseline of 5-8 rats. Significant differences between baseline and treatment are indicated by an asterisk (paired t-test), P<0.05-0.01).

responding for water = experiment: bar-pressing (responding) for water; details: dose of 3 mg/kg, alone, data not shown
[3] = system: nicotine self-administration; experiment: nicotine self-administration; details: Example 7, FIGS. 11-12: mecamylamine 0.1 mg/kg i.p., 18-methoxycoronaridine 0.5 mg/kg i.p., dextromethorphan 0.5 mg/kg s.c., bupropion 5 mg/kg i.p.; 5-8 rats

CNC1(C)C2CCC(C2)C1(C)C (stereo not drawn) [mecamylamine]
effect on methamphetamine self-administration (percent of baseline) ([1]; Example 5, FIG. 6: mecamylamine 1 mg/kg i.p., 18-methoxycoronaridine 2 mg/kg i.p., dextromethorphan 5 mg/kg s.c., 6-7 rats): none of the drugs administered alone, significantly decreased
effect on methamphetamine self-administration (percent of baseline) ([1]; Example 6, FIG. 9: mecamylamine 1 mg/kg i.p., 18-methoxycoronaridine 5 mg/kg i.p., dextromethorphan 10 mg/kg s.c., bupropion 10 mg/kg i.p., 5-9 rats): none of the drugs administered alone, significantly decreased
effect on morphine self-administration (percent of baseline) ([2]; Example 5, FIG. 5: mecamylamine 1 mg/kg i.p., 6-8 rats): none of the drugs administered alone, significantly decreased
effect on morphine self-administration (percent of baseline) ([2]; Example 6, FIG. 8: mecamylamine 1 mg/kg i.p., bupropion 5 mg/kg i.p., 5-8 rats): none of the drugs administered alone, significantly decreased
effect on responding for water (responding for water): decreases responding for water
effect on nicotine self-administration (percent of baseline) [3]: none of the drugs administered alone, significantly decreased
